One block for each molecule: values may come before it.
Key:
[1] = test system: SKOV-3 ovarian-cancer cells; parameters: method as in PMID 28390117; conditions: FACS analysis; cited from earlier work
KG1 cells = test system: KG1 cells; parameters: method as in PMID 18056483; conditions: cited from earlier work
U-937 cells = test: Cell cycle analysis (PI, flow cytometry); assay type: cell-based, human; conditions: 10 µM, 24 h
Method: (§1) To determine the effect of rilpivirine on cell-cycle distribution a flow cytometry-based analysis was performed after staining the untreated and treated cells with propidium iodide (PI) solution [22]. Briefly, 6 × 10^4 cells/well were seeded in 3 mL of medium per well in 6-well plates. After overnight incubation at 37 °C in 5% CO2, the cells were incubated with the test compounds for specified time points. The medium-containing cells were then taken out from the wells and transferred to FACS tubes. Cells were then pelleted by centrifugation at 300 g for 5 min. Afterward, cells were fixed by using 70% (v/v) ice-cold ethanol for 15 min and then again pelleted by centrifugation (300 g for 5 min). Finally, the cells were incubated with 200 µL of PI staining solution (50 μg/mL PI, 0.1% sodium citrate, 0.1 mg/mL RNase A, and 0.1% Triton X-100) for 1.5 h at room temperature in the dark. After the incubation period, the cells were analysed using a CytoFLEX flow cytometer (Beckman Coulter Inc., Brea, CA, USA). CytExpert software version 2.1 was used for data analysis and graph preparation.

K-562 cells [2] = test: Cell cycle analysis (PI, flow cytometry); assay type: cell-based, human
Method: as §1

NB4 cells = test: Cell cycle analysis (PI, flow cytometry); assay type: cell-based, human; conditions: 10 µM, 24 h
Method: as §1

Aurora A = test system: Aurora A; parameters: method as in PMID 36297298; conditions: cited from earlier work
HL-60 cells = test: Resazurin cell viability assay; assay type: cell-based; conditions: Homo sapiens, HL-60, 72 h; read-out: 72-h GI50
Method: Cell viability was determined by a resazurin-based assay as described previously. […] At the end of the treatment period, 20 µL of resazurin (0.1 mg/mL in PBS) was added per well and incubated for further 4 h.

K-562 cells [3] = test: Resazurin cell viability assay; assay type: cell-based, human; conditions: 72 h
Method: Cell viability was determined by a resazurin-based assay as described previously. Briefly, 5 × 10^3 cells/well were seeded into 96-well plates (Corning Inc., Corning, NY, USA) in 180 µL of RPMI 1640 medium and incubated overnight at 37 °C with 5% CO2. Next day, cells were treated with rilpivirine after serially diluted (1:2 dilution for final concentrations ranging from 0.625 µM to 40 µM) or DMSO (0.1%) for specified time periods (24, 48, or 72 h). At the end of the treatment period, 20 µL of resazurin (0.1 mg/mL in PBS) was added per well and incubated for further 4 h. Fluorescence intensities were recorded at 570 nm (excitation)/585 nm (emission) using an EnVision® multilabel plate reader (PerkinElmer, MA, USA). Drug concentrations required for cell viability reduction by 50% (GI50) compared with untreated (DMSO vehicle-treated only) control were determined by a non-linear regression model using GraphPad Prism software version 7.02 (La Jolla, CA, USA).

SMILES: CC(C)CN(C[C@@H](O)[C@H](Cc1ccccc1)NC(=O)O[C@H]1CO[C@H]2OCC[C@H]21)S(=O)(=O)c1ccc(N)cc1 [darunavir]
cell-cycle phase arrest [1]: predominance of a G0/G1 phase arrest

SMILES: CC(C)(C)n1nc(-c2ccc(Cl)cc2)c2c(N)ncnc21 [PP2]
cell-cycle arrest (KG1 cells): induced G1 cell-cycle arrest

SMILES: Cc1cc(C#N)cc(C)c1Oc1nc(Nc2ccc(C#N)cc2)nc(N)c1Br [etravirine]
cell-cycle phase arrest [1]: predominance of a G0/G1 phase arrest | proportion of cells in the G2/M phase [1]: failed to increase the proportion of cells in the G2/M phase | G2/M phase arrest (U-937 cells): failed to induce a G2/M phase arrest | G2/M phase arrest (K-562 cells [2]; 10 µM, 24 h): failed to induce a G2/M phase arrest | G2/M phase arrest (NB4 cells): failed to induce a G2/M phase arrest | Aurora A kinase inhibition (Aurora A): inability to inhibit Aurora A kinase

SMILES: Nc1nc(NC2CC2)c2ncn([C@H]3C=C[C@@H](CO)C3)c2n1 [abacavir]
cell-cycle phase arrest [1]: predominance of a G0/G1 phase arrest

SMILES: C[C@H](Cn1cnc2c(N)ncnc21)OCP(=O)(O)O [tenofovir]
cell-cycle phase arrest [1]: predominance of a G0/G1 phase arrest

GI50 (HL-60 cells): 0.07 µM
SMILES: Nc1ccn([C@@H]2O[C@H](CO)[C@@H](O)[C@@H]2O)c(=O)n1 [cytarabine]

SMILES: O=C1Nc2ccc(Cl)cc2[C@@](C#CC2CC2)(C(F)(F)F)O1 [efavirenz]
cell-cycle phase arrest [1]: predominance of a G0/G1 phase arrest

GI50 (K-562 cells [3]): ~38 µM
SMILES: N[C@@H]1CCCN(c2c(/C=C3\SC(=O)NC3=O)cccc2-c2ccccc2)C1 [AZD1208]
cell-cycle arrest (K-562 cells [2]; 60 μM, 48 h): induced G1 arrest
